Measured values from patent US8431557B2, “Treatment of menopause-associated symptoms” (Besins Healthcare Luxembourg SARL, priority 2006, dated 2013).
Where two headings read alike, the source gives them in different places.

Key:
[1] = tested on: menopausal women; experiment: Placebo-controlled study: frequency of moderate to severe hot flushes; assay type: in vivo, human (women); set-up: key to Frequency of Moderate to Severe Hot Flushes, Mean Change from Baseline / Frequency of Moderate to Severe Hot Flushes, Mean: number of moderate-to-severe hot flushes per day; settings: for Frequency of Moderate to Severe Hot Flushes, Mean: Baseline, daily average
Method: This study was a multi-centred, double-blind, placebo-controlled, parallel group comparison. A total of 351 subjects were enrolled at 78 sites in the United States.
A two-week, medication free, Pre-Treatment Phase was used to determine subject vasomotor symptoms. Efficacy assessments included the number and intensity of hot flushes per day, and severity of vulvar and vaginal atrophy symptoms.
The three treatment groups comprised the following dosages: • A 0.375 mg dose (1.25 g of gel @ 0.03%) applied to one arm and 0.9 g of placebo gel applied on the other arm once daily for 12 weeks; • A 0.27 mg dose (0.9 g of gel @ 0.03%) applied to one arm and 1.25 g of placebo gel applied on the other arm once daily for 12 weeks; and • 0.9 g of placebo gel applied to one arm and 1.25 g of placebo gel applied on the other arm once daily for 12 weeks.
The Treatment Phase was 12 weeks. A pre-treatment period of 2 weeks was used to initially evaluate each subject's vasomotor symptoms.
All data were analyzed using the approach of Observed Cases (OC).
For all continuous primary and secondary efficacy parameters, descriptive statistics tables and 2-way ANCOVA with fixed factors treatment and centre, and baseline value as covariate were provided. The interaction of treatment and centre was investigated using 2-way ANCOVA with fixed factors treatment, centre, and treatment-by-centre interaction with baseline value as covariate. To control the Type-I error rate, a step-down procedure using contrasts was performed to compare each treatment group to the placebo group. First, the group with the 0.375 mg dose was compared against placebo at the α=0.05 level (2-sided). If the null hypothesis was rejected, the group with the 0.27 mg dose was compared to placebo at the α=0.05 level (2-sided). Graphs were used to characterize the dose response. If the assumptions of the model were not met, then van Elteren's test with centre as the stratification variable was used in the step-down procedure. For categorical data, Fisher's exact test was used to compare treatment groups.
The study assessed the following variables: • Mean change in frequency of moderate to severe vasomotor symptoms from baseline to Week 4; • Mean change in frequency of moderate to severe vasomotor symptoms from baseline to Week 12; • Mean change in severity of moderate to severe vasomotor symptoms from baseline to Week 4; • Mean change in severity of moderate to severe vasomotor symptoms from baseline to Week 12; • Mean change in frequency of moderate-to-severe hot flushes at each week; • Mean change in severity of moderate-to-severe hot flushes at each week; • Mean change from baseline to Week 12 in the moderate to severe symptom of vulvar and vaginal atrophy that has been identified by the subject as being the most bothersome to her (vaginal pain, dryness, irritation/itching, bleeding, dysuria);
The baseline value was defined as the daily average of moderate to severe hot flushes during the 2 Pre-Treatment Phase weeks. The “daily average” was calculated from “the mean across the reported days at each week or at Pre-Treatment Phase weeks. If only mild hot flushes were reported on any day, the moderate to severe hot flush value for the subject on that day was zero. If less than 10 days of data were available for the baseline period, the baseline daily average was considered missing.
On a daily basis, the subject recorded the number of hot flushes and rated the intensity of each based on a four-point scale as follows: • 0 (none) • 1 (mild) Sensation of heat without perspiration • 2 (moderate) Sensation of heat with perspiration, but the subject was able to continue with their activity • 3 (severe) Sensation of heat with sweating, sufficiently severe to result in discontinuation of activity Assessment of Vulvar and Vaginal Atrophy Symptom Severity

[2] = Plasma concentrations of estradiol and unconjugated estrone (HPLC with MS/MS); assay type: in vivo, human (women); settings: for Geometric Mean Concentration of E2 (plasma): Baseline; for concentration at 4 weeks / concentration at 8 weeks / concentration at 12 weeks: female, human, plasma, topical, read-out: Geometric Mean Concentration of E2 (plasma)
Method: A single 10 mL sample of whole blood was collected at baseline, Weeks 4, 8, and 12. To eliminate the possibility of sample contamination, only the specimens obtained from the arm not used for estradiol application were reported.

C[C@]12CC[C@@H]3c4ccc(O)cc4CC[C@H]3[C@@H]1CC[C@@H]2O [estradiol, 17-beta estradiol]
Week at which statistical significance vs placebo was achieved, frequency of moderate to severe hot flushes ([1]; 0.27 mg dose): 4 Week | Frequency of Moderate to Severe Hot Flushes, Mean ([1]; 0.27 mg dose): 11.73 | Frequency of Moderate to Severe Hot Flushes, Mean Change from Baseline ([1]; 0.27 mg dose, Week 1): −1.05 | Frequency of Moderate to Severe Hot Flushes, Mean Change from Baseline ([1]; 0.27 mg dose, Week 2): −2.97 | Frequency of Moderate to Severe Hot Flushes, Mean Change from Baseline ([1]; 0.27 mg dose, Week 3): −4.08 | Frequency of Moderate to Severe Hot Flushes, Mean Change from Baseline ([1]; 0.27 mg dose, Week 4): −4.63 | Frequency of Moderate to Severe Hot Flushes, Mean Change from Baseline ([1]; 0.27 mg dose, Week 5): −5.20 | Frequency of Moderate to Severe Hot Flushes, Mean Change from Baseline ([1]; 0.27 mg dose, Week 6): −5.62 | Frequency of Moderate to Severe Hot Flushes, Mean Change from Baseline ([1]; 0.27 mg dose, Week 7): −6.02 | Frequency of Moderate to Severe Hot Flushes, Mean Change from Baseline ([1]; 0.27 mg dose, Week 8): −6.02 | Frequency of Moderate to Severe Hot Flushes, Mean Change from Baseline ([1]; 0.27 mg dose, Week 9): −6.24 | Frequency of Moderate to Severe Hot Flushes, Mean Change from Baseline ([1]; 0.27 mg dose, Week 10): −6.29 | Frequency of Moderate to Severe Hot Flushes, Mean Change from Baseline ([1]; 0.27 mg dose, Week 11): −6.29 | Frequency of Moderate to Severe Hot Flushes, Mean Change from Baseline ([1]; 0.27 mg dose, Week 12): −6.19 | Week at which statistical significance vs placebo was achieved, frequency of moderate to severe hot flushes ([1]; 0.375 mg dose): 2 Week | Frequency of Moderate to Severe Hot Flushes, Mean ([1]; 0.375 mg dose): 12.50 | Frequency of Moderate to Severe Hot Flushes, Mean Change from Baseline ([1]; 0.375 mg dose, Week 1): −1.93 | Frequency of Moderate to Severe Hot Flushes, Mean Change from Baseline ([1]; 0.375 mg dose, Week 2): −4.36 | Frequency of Moderate to Severe Hot Flushes, Mean Change from Baseline ([1]; 0.375 mg dose, Week 3): −5.73 | Frequency of Moderate to Severe Hot Flushes, Mean Change from Baseline ([1]; 0.375 mg dose, Week 4): −6.91 | Frequency of Moderate to Severe Hot Flushes, Mean Change from Baseline ([1]; 0.375 mg dose, Week 5): −7.56 | Frequency of Moderate to Severe Hot Flushes, Mean Change from Baseline ([1]; 0.375 mg dose, Week 6): −7.83 | Frequency of Moderate to Severe Hot Flushes, Mean Change from Baseline ([1]; 0.375 mg dose, Week 7): −8.05 | Frequency of Moderate to Severe Hot Flushes, Mean Change from Baseline ([1]; 0.375 mg dose, Week 8): −8.49 | Frequency of Moderate to Severe Hot Flushes, Mean Change from Baseline ([1]; 0.375 mg dose, Week 9): −8.69 | Frequency of Moderate to Severe Hot Flushes, Mean Change from Baseline ([1]; 0.375 mg dose, Week 10): −8.47 | Frequency of Moderate to Severe Hot Flushes, Mean Change from Baseline ([1]; 0.375 mg dose, Week 11): −8.81 | Frequency of Moderate to Severe Hot Flushes, Mean Change from Baseline ([1]; 0.375 mg dose, Week 12): −8.76 | Efficacy vs. placebo, frequency and severity of moderate to severe hot flushes ([1]; 0.375 mg dose, Weeks 4 and 12, all 4 criteria): efficacious vs. placebo | Geometric Mean Concentration of E2 (plasma) ([2]; 0.270 mg estradiol dose): 4.2 pg/mL | Geometric Mean Concentration of E2 (plasma) ([2]; 0.375 mg estradiol dose): 3.7 pg/mL | concentration at 4 weeks ([2]; 0.27 mg): 0.0142 ng/mL | concentration at 8 weeks ([2]; 0.27 mg): 0.0156 ng/mL | concentration at 12 weeks ([2]; 0.27 mg): 0.014 ng/mL | concentration at 4 weeks ([2]; 0.375 mg): 0.0183 ng/mL | concentration at 8 weeks ([2]; 0.375 mg): 0.0158 ng/mL | concentration at 12 weeks ([2]; 0.375 mg): 0.0214 ng/mL
